Source: patent publication US20250333398A1, “MONOARYL AND HETARYL SUBSTITUTED INDAZOLES AND BENZIMIDAZOLES AS STING ANTAGONISTS AND THE USE THEREOF AS MEDICAMENT” (Boehringer Ingelheim International GmbH, priority 2024, published 2025)

System: T1, STING
T1 construct: from tissue; host or cells: human whole blood from healthy donors
Assay: Human whole blood assay (HWBA), cGAMP-stimulated IFNα2α production
Type: cell-based
Conditions: human whole blood stimulated by cGAMP
Experimental: For the detection of STING inhibition in physiological environment human whole blood was stimulated by the cyclic dinucleotide cGAMP. Pathway activity was monitored by measuring the IFNα2α production.
Assay method: Compounds were delivered as 10 mM DMSO solution and serial diluted and transferred to the 96-well Cell culture Plate (Corning #3595), prefilled with 20 μl OptiMEM (Gibco #11058-021) in each well, using an Echo acoustic dispenser. Typically, 8 concentrations were used with the highest concentration at 10 μM in the final assay volume followed by ^˜1:5 dilution steps. DMSO concentration was set to 0.1% in the final assay volume. The 96 well assay plate contained 9 test compounds, a reference compound and DMSO in control wells.
Collection of human whole blood from 3 or more healthy donors (male or female, no medication for 7 days, exception contraceptive and thyroxine) as Na-citrate blood (e.g. 3.8% in Monovettes from Sarstedt) is conducted in parallel. Whole blood was kept at room temperature for a maximum of 3 hours after collection until use in the assay.
160 μl of the whole blood samples were transferred to each well of the 96-well assay plates filled with compound/OptiMEM. All assay plates are prepared as duplicates with blood from different donors. Blood plates were kept at room temperature for 60 minutes and continuous shaking with 450 rpm, covered with the lid, but not sealed.
A 10× cGAMP assay solution was diluted from a 2 mM stock solution in 1×HBSS immediately before use at room temperature. 20 μl of the 10× cGAMP/HBSS were added to all compound and all high control wells, whereas HBSS only was added to all low control wells.
After covering assay plates with aera seals and the lid, blood plates were kept at room temperature for 30 minutes and continuous shaking with 450 rpm, followed by an overnight incubation of 22 h at 37° C. in the incubator, without shaking.
For the detection of IFNα-2α in human plasma, the biotinylated capture antibody (Antibody set IFNA2, Meso Scale Diagnostics #B21VH-3, including coating and capture antibody) was diluted 1:17.5 in Diluent 100 (Meso Scale Diagnostics #R50AA-4, according to the manufacturer. U-Plex MSD GOLD 96-well Small Spot Streptavidin SECTOR Plates (Meso Scale Diagnostics #L45SA-5) were coated with 25 μl diluted capture antibody. Coated plates were incubated for 60 min at room temperature under continuous shaking at 700 rpm. MSD IFNα-2α plates were washed three times with 150 μl wash buffer (1×HBSS, 0.05% Tween).
After blocking the plates with 100 μl block solution/well (1×HBSS with 0.2% Tween, 2% BSA) for 60 min at room temperature and continuous shaking at 700 rpm, plates were emptied as dry as possible by dumping just before continuing with the human plasma. Whole Blood assay plates were centrifuged at 1600 rpm for 10 minutes. 25 μl of supernatant was transferred with a pipetting robotics from each whole blood plate to the corresponding IFNα-2α plate. Plates were sealed with microplate seals and kept at room temperature again under continuous shaking at 700 rpm for two hours. Next MSD IFNα-2α plates were washed three times with 150 μl wash buffer (1×HBSS, 0.05% Tween), before adding 25 μl MSD SULFO-TAG IFNα-2α Antibody solution (1:100 diluted in Diluent 3 (Meso Scale Diagnostics #R50AP-2) to each well of the plates. Afterwards plates were sealed with microplate seals and kept at room temperature again under continuous shaking at 700 rpm for two hours. Finally, MSD IFNα-2α plates were washed three times with 150 μl wash buffer (1×HBSS, 0.05% Tween). 150 μl 2× Read buffer was added to each well and plates were immediately measured with the MSD Sector S600 Reader using the vendor barcode.
Data evaluation and calculation: For data evaluation and calculation, % control calculation of each well was based on the mean of high (cGAMP stimulated control) and mean of low (unstimulated control) controls by using the following formula: […]

Row | SMILES | IC50
1 | COc1nn(C2CC2)cc1-n1cc2c(-c3nn(-c4ccc(P(C)(C)=O)cc4C)c(C)c3C(C)C)cccc2n1 [Example 9, 2-(1-cyclopropyl-3-methoxy-1H-pyrazol-4-yl)-4-{1-[4-(dimethylphosphoryl)-2-methylphenyl]-5-methyl-4-(propan-2-yl)-1H-pyrazol-3-yl}-2H-indazole] | 1500 nM
2 | COc1nn(CC(C)(C)O)cc1-n1cc2c(-c3nc(-c4ccc(C(N)=O)cc4OC(F)(F)F)n(C)c3C3CC3)cccc2n1 [Example 11, 4-(5-cyclopropyl-4-{2-[1-(2-hydroxy-2-methylpropyl)-3-methoxy-1H-pyrazol-4-yl]-2H-indazol-4-yl}-1-methyl-1H-imidazol-2-yl)-3-(trifluoromethoxy)benzamide] | 880 nM
3 | Cn1nc(-n2cc3c(-c4nc(-c5ccc(P(C)(C)=O)cc5OC(F)(F)F)n(C)c4C4CC4)cccc3n2)cc1C(F)F [Example 2, 4-{5-cyclopropyl-2-[4-(dimethylphosphoryl)-2-(trifluoromethoxy)phenyl]-1-methyl-1H-imidazol-4-yl}-2-[5-(difluoromethyl)-1-methyl-1H-pyrazol-3-yl]-2H-indazole] | 210 nM
4 | CC[P@](C)(=O)c1ccc(-c2nc(-c3cccc4nn(-c5cc(C6CC6)n(C)n5)cc34)c(C3CC3)n2C)c(OC(F)(F)F)c1 [Example 19, 2-(5-cyclopropyl-1-methyl-1H-pyrazol-3-yl)-4-(5-cyclopropyl-2-{4-[(S)-ethyl(methyl)phosphoryl]-2-(trifluoromethoxy)phenyl}-1-methyl-1H-imidazol-4-yl)-2H-indazole] | 140 nM
5 | COc1nn(C2CC2)cc1-n1cc2c(-c3nc(-c4ccc(C(N)=O)cc4OC(F)(F)F)n(C)c3C3CC3)cccc2n1 [Example 16, 4-{5-cyclopropyl-4-[2-(1-cyclopropyl-3-methoxy-1H-pyrazol-4-yl)-2H-indazol-4-yl]-1-methyl-1H-imidazol-2-yl}-3-(trifluoromethoxy)benzamide] | 35 nM
6 | CC[P@](C)(=O)c1ccc(-c2nc(-c3cccc4nn(-c5cc(C(F)(F)F)n(C)n5)cc34)c(C3CC3)n2C)c(OC(F)(F)F)c1 [Example 10, 4-(5-cyclopropyl-2-{4-[(S)-ethyl(methyl)phosphoryl]-2-(trifluoromethoxy)phenyl}-1-methyl-1H-imidazol-4-yl)-2-[1-methyl-5-(trifluoromethyl)-1H-pyrazol-3-yl]-2H-indazole] | 78 nM
7 | CCOc1nn(C)cc1-n1cc2c(-c3nc(-c4ccc(C(N)=O)cc4OC(F)(F)F)n(C)c3C3CC3)cccc2n1 [Example 4, 4-{5-cyclopropyl-4-[2-(3-ethoxy-1-methyl-1H-pyrazol-4-yl)-2H-indazol-4-yl]-1-methyl-1H-imidazol-2-yl}-3-(trifluoromethoxy)benzamide] | 95 nM
8 | COCc1cc(C(N)=O)ccc1-c1nc(-c2cccc3nn(-c4cn(C5CC5)nc4OC)cc23)c(C2CC2)n1C [Example 12, 4-{5-cyclopropyl-4-[2-(1-cyclopropyl-3-methoxy-1H-pyrazol-4-yl)-2H-indazol-4-yl]-1-methyl-1H-imidazol-2-yl}-3-(methoxymethyl)benzamide] | 840 nM
9 | CC[P@](C)(=O)c1ccc(-c2nc(-c3cccc4nn(-c5cc(C(F)F)n(C)n5)cc34)c(C3CC3)n2C)c(OC(F)(F)F)c1 [Example 7, 4-(5-cyclopropyl-2-{4-[(S)-ethyl(methyl)phosphoryl]-2-(trifluoromethoxy)phenyl}-1-methyl-1H-imidazol-4-yl)-2-[5-(difluoromethyl)-1-methyl-1H-pyrazol-3-yl]-2H-indazole] | 57 nM
10 | CCP(=O)(CC)c1ccc(-c2nc(-c3cccc4nn(-c5cc(C(F)(F)F)n(C)n5)cc34)c(C3CC3)n2C)c(OC(F)(F)F)c1 [Example 17, 4-{5-cyclopropyl-2-[4-(diethylphosphoryl)-2-(trifluoromethoxy)phenyl]-1-methyl-1H-imidazol-4-yl}-2-[1-methyl-5-(trifluoromethyl)-1H-pyrazol-3-yl]-2H-indazole] | 89 nM
11 | COc1nn(C2CC2)cc1-n1cc2c(-c3nc(-c4ccc(C(N)=O)cc4OCC(F)F)n(C)c3C3CC3)cccc2n1 [Example 6, 4-{5-cyclopropyl-4-[2-(1-cyclopropyl-3-methoxy-1H-pyrazol-4-yl)-2H-indazol-4-yl]-1-methyl-1H-imidazol-2-yl}-3-(2,2-difluoroethoxy)benzamide] | 58 nM
12 | COc1nn(C)cc1-n1cc2c(-c3nc(-c4ccc(C(=O)N(C)C)cc4OC(F)(F)F)n(C)c3C3CC3)cccc2n1 [Example 3, 4-{5-cyclopropyl-4-[2-(3-methoxy-1-methyl-1H-pyrazol-4-yl)-2H-indazol-4-yl]-1-methyl-1H-imidazol-2-yl}-N,N-dimethyl-3-(trifluoromethoxy)benzamide] | 2600 nM
13 | Cn1nc(-n2cc3c(-c4nc(-c5ccc(P(C)(C)=O)cc5OC(F)(F)F)n(C)c4C4CC4)cccc3n2)cc1C(F)(F)F [Example 20, 4-{5-cyclopropyl-2-[4-(dimethylphosphoryl)-2-(trifluoromethoxy)phenyl]-1-methyl-1H-imidazol-4-yl}-2-[1-methyl-5-(trifluoromethyl)-1H-pyrazol-3-yl]-2H-indazole] | 180 nM
14 | CC[P@@](C)(=O)c1ccc(-c2nc(-c3cccc4nn(-c5cn(C6CC6)nc5OC)cc34)c(C3CC3)n2C)c(OC(F)(F)F)c1 [Example 13, 4-(5-cyclopropyl-2-{4-[(R)-ethyl(methyl)phosphoryl]-2-(trifluoromethoxy)phenyl}-1-methyl-1H-imidazol-4-yl)-2-(1-cyclopropyl-3-methoxy-1H-pyrazol-4-yl)-2H-indazole] | 38 nM
15 | CC[P@](C)(=O)c1ccc(-c2nc(-c3cccc4nn(-c5cn(C6CC6)nc5OC)cc34)c(C3CC3)n2C)c(OC(F)(F)F)c1 [Example 14, 4-(5-cyclopropyl-2-{4-[(S)-ethyl(methyl)phosphoryl]-2-(trifluoromethoxy)phenyl}-1-methyl-1H-imidazol-4-yl)-2-(1-cyclopropyl-3-methoxy-1H-pyrazol-4-yl)-2H-indazole] | 11 nM
16 | CC[P@](C)(=O)c1ccc(-c2nc(-c3cccc4[nH]c(-c5cc(C(F)(F)F)n(C)n5)nc34)c(C3CC3)n2C)c(OC(F)(F)F)c1 [Example 18, 4-(5-cyclopropyl-2-{4-[(S)-ethyl(methyl)phosphoryl]-2-(trifluoromethoxy)phenyl}-1-methyl-1H-imidazol-4-yl)-2-[1-methyl-5-(trifluoromethyl)-1H-pyrazol-3-yl]-1H-1,3-benzodiazole] | 87 nM
17 | Cn1nc(-n2cc3c(-c4nc(-c5ccc(C(N)=O)cc5OC(F)(F)F)n(C)c4C4CC4)cccc3n2)cc1C(F)(F)F [Example 8, 4-(5-cyclopropyl-1-methyl-4-{2-[1-methyl-5-(trifluoromethyl)-1H-pyrazol-3-yl]-2H-indazol-4-yl}-1H-imidazol-2-yl)-3-(trifluoromethoxy)benzamide] | 80 nM
18 | COc1nn(C2CC2)cc1-n1cc2c(-c3nc(-c4ccc(C(=O)N(C)C)cc4OC(F)(F)F)n(C)c3C3CC3)cccc2n1 [Example 15, 4-{5-cyclopropyl-4-[2-(1-cyclopropyl-3-methoxy-1H-pyrazol-4-yl)-2H-indazol-4-yl]-1-methyl-1H-imidazol-2-yl}-N,N-dimethyl-3-(trifluoromethoxy)benzamide] | 110 nM
